According to ChEMBL document CHEMBL1154581, “Polyhydroxylated sterols from the octocoral Dendronephthya gigantea” (J Nat Prod, 2000):
In brackets after ≈: the same amount, converted by molar mass.

Test system: L1210
Experiment: Cytotoxicity against mouse L1210 cells
Format: functional, cell-based

`CC(=O)OC[C@]12CC[C@H]3[C@@H](C[C@@H](O)[C@@]4(O)C[C@@H](O)CC[C@]34C)[C@@H]1[C@H](O)C[C@@H]2[C@H](C)CCCC(C)C` [DENDRONESTEROL B] gave an IC50 of 5.2 µg/mL (≈ 10.5 µM).
